Assays:
Type in all cases: in vivo
Musca domestica [1] = experiment: Knockdown spray test on adult Musca domestica (Test Example 3); conditions: topical, 0.25 h, active ingredient 2.0% w/v, 0.5 ml sprayed, within 15 minutes, read-out: knockdown rate of the test insects within 15 minutes
Procedure, shortened: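 Ten adult house flies (5 male, 5 female) in a gauze-covered cup sprayed with 0.5 ml test solution from 30 cm at 0.9 kg/cm^2 inside a chamber, then removed. Knocked-down flies counted at 2, 5 and 15 min and expressed as % of insects tested.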

Blattella germanica [2] = experiment: Knockdown spray test on Blattella germanica, 2.0% w/v oil formulation (Test Example 1); conditions: topical, 0.25 h, active ingredient 2.0% w/v, 1.5 ml sprayed, within 15 minutes, read-out: knockdown rate of the test insects within 15 minutes
Procedure, shortened: (§1)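 Ten German cockroaches (5 males, 5 females) in a mesh-bottomed, butter-walled container were sprayed with 1.5 ml test solution from 60 cm at 0.42 kg/cm^2 inside a chamber.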

Culex pipiens pallens [3] = experiment: Larvicidal test on Culex pipiens pallens, eight days (Test Example 7); conditions: 192 h; last-instar larvae of Culex pipiens pallens; 3.5 ppm in water; eight days later; read-out: death rate
Procedure: (§2) 20 last-instar larvae of Culex pipiens pallens were released into a liquid to which 0.7 ml of the above test drug solution was added to 100 ml of ion-exchanged water (a concentration of the active ingredient of 3.5 ppm). Eight days later, the life and death of the Culex pipiens pallens was examined, and the death rate was calculated. The death rate was calculated by the following equation.
(§3) Death rate (%)=(Number of dead insects/Number of tested insects)×100

Culex pipiens pallens [4] = experiment: Knockdown spray test on adult Culex pipiens pallens (Test Example 4); conditions: topical, 0.25 h, active ingredient 0.1% w/v, 0.5 ml sprayed, within 15 minutes, read-out: knockdown rate of the test insects within 15 minutes
Procedure, shortened: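 Ten adult mosquitoes in a gauze-covered cup inside a 46×46×70 cm chamber were sprayed with 0.5 ml of test solution from 30 cm at 0.4 kg/cm^2. The cup was removed at once, and knocked-down insects were counted at 2, 5 and 15 min; knockdown rate (%) = knocked-down/tested ×100.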

Culex pipiens pallens [5] = experiment: Larvicidal test on Culex pipiens pallens, one day (Test Example 6); conditions: 24 h; last-instar larvae of Culex pipiens pallens; 3.5 ppm in water; one day later; read-out: death rate
Procedure: Each of the formulations of Compounds of Present Invention (39), (63), (71), (72), (92), (93), (95), (106), (150), (171), (170), (181), (182), (183), (187), (188), (189), (190), (191), (192), (200), (201), (201), (234), (246), (290) and (299) obtained in Formulation Example 15 was diluted with water, so as to have a concentration of the active ingredient of 500 ppm, to prepare a test drug solution.
as §2, with “One day” for “Eight days”
as §3

Plutella xylostella = experiment: Foliar spray test on Plutella xylostella on cabbage (Test Example 10); conditions: 120 h, third instar larvae of Plutella xylostella on cabbage, 500 ppm spray 20 ml/cup, after five days, read-out: controlling value
Procedure, shortened: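 Cabbage at the third–fourth true-leaf stage sprayed with test solution at 20 ml/cup, dried, then infested with 10 third-instar larvae. Insects counted after five days; controlling value (%) calculated from treated and non-treated counts before treatment and at observation.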

Musca domestica [6] = experiment: Filter paper/sucrose bait death rate test on Musca domestica (Test Example 5); conditions: female imagoes of Musca domestica, 0.7 ml on filter paper, after 24 hours
Procedure, shortened: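 Filter paper in a 5.5 cm cup dosed with 0.7 ml test drug solution, with 30 mg sucrose as bait. Ten female adult houseflies released and cup sealed. Dead insects counted after 24 h; death rate (%) = dead/tested × 100.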

Spodoptera litura = experiment: Foliar spray test on Spodoptera litura on cabbage (Test Example 11); conditions: 96 h, fourth instar larvae of Spodoptera litura on cabbage, 500 ppm spray 20 ml/cup, after 4 days, read-out: controlling value
Procedure: On the other hand, cabbage was planted in a polyethylene cup, and grown until the third-fourth true leaf was spread. The test spray solution was sprayed to the cabbage at a ratio of 20 ml/cup. After the drug solution sprayed orn the cabbage was dried, 10 fourth instar larvae of Spodoptera litura were allowed to parasitize the cabbage. After 4 days, the number of surviving Spodoptera litura on the cabbage leaves was examined, and the controlling value was calculated according to the following equation. Controlling value (%)={1−(Cb×Tai)/([…])}×100 In the equation, the symbols represent as follows. Cb: the number of insects in a non-treated section before treatment Cai: the number of insects in a non-treated section on observation Tb: the number of insects in a treated section before treatment Tai: the number of insects in a treated section on observation

Blattella germanica [7] = experiment: Knockdown spray test on Blattella germanica, 0.1% w/v oil formulation (Test Example 2); conditions: topical, 0.25 h, active ingredient 0.1% w/v, 1.5 ml sprayed, within 15 minutes, read-out: knockdown rate of the test insects within 15 minutes
Procedure, shortened: as §1

Row | Compound | pest or weed control at 2 % strength (Musca domestica [1]) | pest or weed control at 2 % strength (Blattella germanica [2]) | pest or weed control at 3.5 ppm (Culex pipiens pallens [3]) | pest or weed control at 0.1 % strength (Culex pipiens pallens [4]) | pest or weed control at 3.5 ppm (Culex pipiens pallens [5]) | pest or weed control at 500 ppm (Plutella xylostella) | pest or weed control at 500 ppm (Musca domestica [6]) | pest or weed control at 500 ppm (Spodoptera litura) | pest or weed control at 0.1 % strength (Blattella germanica [7])
1 | O=C(NCC1CCOC1)c1cc(COCc2ccc(C(F)(F)F)cc2)on1 (stereo not shown) [(63), N-(tetrahydrofuran-3-ylmethyl)-5-(4-trifluoromethylbenzyloxymethyl)isoxazole-3-carboxamide] | ≥ 80% | ≥ 80% | ≥ 90% | ≥ 80% | ≥ 90% |  |  |  | 
2 | O=C(NCC1CCOCC1)c1cc(COCc2ccc(Cl)cc2)on1 [(71), N-(tetrahydropyran-4-ylmethyl)-5-(4-chlorobenzyloxymethyl)isoxazole-3-carboxamide] |  |  |  | ≥ 80% | ≥ 90% | ≥ 90% |  |  | 
3 | O=C(NCC1CCOC1)c1cc(COCc2ccc(Cl)c(Cl)c2)on1 (stereo not shown) [(72), N-(tetrahydrofuran-3-ylmethyl)-5-(3,4-dichlorobenzyloxymethyl)isoxazole-3-carboxamide] |  |  |  | ≥ 80% | ≥ 90% | ≥ 90% | ≥ 90% | ≥ 80% | ≥ 80%
4 | O=C(NCC1CCOCC1)c1cc(COCc2ccc(Br)cc2)on1 [(92), N-(tetrahydropyran-4-ylmethyl)-5-(4-bromobenzyloxymethyl)isoxazole-3-carboxamide] |  |  | ≥ 90% | ≥ 80% | ≥ 90% | ≥ 90% |  |  | ≥ 80%
5 | O=C(NCC1CCOC1)c1cc(COCc2ccc(OC(F)(F)F)cc2)on1 (stereo not shown) [(93), N-(tetrahydrofuran-3-ylmethyl)-5-(4-trifluoromethoxybenzyloxymethyl)isoxazole-3-carboxamide] |  |  | ≥ 90% | ≥ 80% | ≥ 90% | ≥ 90% |  |  | ≥ 80%
6 | O=C(NCC1CCOC1)c1cc(COCc2ccc(SC(F)(F)F)cc2)on1 (stereo not shown) [(95), N-(tetrahydrofuran-3-ylmethyl)-5-(4-trifluoromethylthiobenzyloxymethyl)isoxazole-3-carboxamide] |  |  | ≥ 90% | ≥ 80% | ≥ 90% |  |  |  | 
7 | O=C(NCC1CCOCC1)c1cc(COc2ccc(Cl)cc2)on1 [(181), N-(tetrahydropyran-4-ylmethyl)-5-[(4-chlorophenoxy)methyl]isoxazole-3-carboxamide] |  |  | ≥ 90% | ≥ 80% | ≥ 90% |  |  |  | 
8 | O=C(NCC1CCOC1)c1cc(COc2ccc(Cl)c(Cl)c2)on1 (stereo not shown) [(182)] |  |  | ≥ 90% | ≥ 80% | ≥ 90% |  |  |  | 
9 | O=C(NCC1CCOCC1)c1cc(COc2ccc(Br)cc2)on1 [(187), N-(tetrahydropyran-4-ylmethyl)-5-(4-bromophenoxymethyl)isoxazole-3-carboxamide] |  |  | ≥ 90% | ≥ 80% | ≥ 90% |  |  |  | 
10 | O=C(NCC1CCOC1)c1cc(COc2ccc(C(F)(F)F)cc2)on1 (stereo not shown) [(188), N-(tetrahydrofuran-3-ylmethyl)-5-(4-trifluorophenoxymethyl) isoxazole-3-carboxamide] |  |  | ≥ 90% | ≥ 80% | ≥ 90% | ≥ 90% |  |  | 
11 | O=C(NCC1CCOCC1)c1cc(COc2ccc(C(F)(F)F)cc2)on1 [(189), N-(tetrahydropyran-4-ylmethyl)-5-(4-trifluoromethylphenoxymethyl)isoxazole-3-carboxamide] |  |  | ≥ 90% | ≥ 80% | ≥ 90% |  |  |  | 
12 | O=C(NCC1CCOCC1)c1cc(COc2ccc(OC(F)(F)F)cc2)on1 [(191), N-(tetrahydropyran-4-ylmethyl)-5-(4-trifluoromethoxyphenoxymethyl)isoxazole-3-carboxamide] |  |  | ≥ 90% | ≥ 80% | ≥ 90% | ≥ 90% |  | ≥ 80% | 
13 | O=C(NCC1CCOC1)c1cc(COc2ccc(SC(F)(F)F)cc2)on1 (stereo not shown) [(192), N-(tetrahydrofuran-3-ylmethyl)-5-(4-trifluoromethylthiophenoxymethyl)isoxazole-3-carboxamide] |  |  | ≥ 90% | ≥ 80% | ≥ 90% |  |  |  | 
14 | O=C(NCC1CCOC1)c1cc(COc2cccc(OC(F)(F)F)c2)on1 (stereo not shown) [(200), N-(tetrahydrofuran-3-ylmethyl)-5-(3-trifluoromethoxyphenoxymethyl)isoxazole-3-carboxamide] |  |  | ≥ 90% | ≥ 80% | ≥ 90% |  | ≥ 90% | ≥ 80% | ≥ 80%
15 | O=C(NCC1CCOCC1)c1cc(COc2cccc(OC(F)(F)F)c2)on1 [(201), N-(tetrahydropyran-4-ylmethyl)-5-(3-trifluoromethoxyphenoxymethyl)isoxazole-3-carboxamide] |  |  | ≥ 90% | ≥ 80% | ≥ 90% | ≥ 90% |  | ≥ 80% | 
16 | O=C(NCC1CCOC1)c1cc(CCCc2ccc(Cl)c(Cl)c2)on1 (stereo not shown) [(246), N-(tetrahydrofuran-3-ylmethyl)-5-[3-(3,4-dichlorophenyl)propyl]isoxazole-3-carboxamide] |  |  |  | ≥ 80% | ≥ 90% | ≥ 90% | ≥ 90% | ≥ 80% | ≥ 80%
17 | Cc1c(C(=O)NCC2CCOC2)noc1CCCc1ccc2ccccc2c1 (stereo not shown) [(290), N-(tetrahydrofuran-3-ylmethyl)-4-methyl-5-[3-(2-naphthyl)propyl]isoxazole-3-carboxamide] | ≥ 80% | ≥ 80% |  | ≥ 80% | ≥ 90% | ≥ 90% | ≥ 90% | ≥ 80% | ≥ 80%
18 | O=C(NCC1CCOC1)c1cc(Cc2ccc3c(c2)OCO3)on1 (stereo not shown) [(299), N-(tetrahydrofuran-3-ylmethyl)-5-(1,3-benzodioxolan-5-ylmethyl)isoxazole-3-carboxamide] |  |  |  | ≥ 80% | ≥ 90% |  | ≥ 90% |  | 
